Test results reported in patent publication US9073858B2, “Methods of targeted drug development” (priority 2010, dated 2015).
“Also recorded” adds a separate entry of the source. Like-named read-outs stand apart in the source and are kept apart here. Blank lines part the entries; values can stand above or below the molecule they belong to.

Tests used:
[1] = Stability on incubation with mouse liver microsomes (MLM); assay type: in vitro ADME; settings: for MLM % Remaining@ 30 Min: percentage left after incubation with mouse liver microsomes for 30 minutes
How it was run: (§1)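 Values are percent compound remaining after 30 min incubation with mouse or human liver microsomes.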

[2] = Stability on incubation with human liver microsomes (HLM); assay type: in vitro ADME; settings: percentage left after incubation with human liver microsomes for 30 minutes
How it was run: as §1

[3] = tested on: EGF receptor-mediated cell proliferation; experiment: Combinatorial studies with known EGFR inhibitors, median effect analysis (MTT assay)
Procedure: Studies were initiated to evaluate the ability of various compounds disclosed herein to synergize with several compounds known to inhibit the function of the EGF receptor in a cell proliferation assay (MTT assay).
The EGFR inhibitor and AD4 compound dilutions were then mixed 1:1 in a 96 well plate. 50 μl of the mix was then added to the cell plate.
A shifting of the inhibitor curve to the left indicates an increase in the effectiveness of the AD4-compound.

A549 cells = experiment: A549 Cell Proliferation Assay (MTT); assay type: cell-based; settings: Homo sapiens
Procedure: Cell proliferation is determined using the MTT assay. The MTT cell proliferation assay is a colorimetric assay system which measures the reduction of a tetrazolium component (MTT) into an insoluble formazan product by the mitochondria of viable cells. After incubation of the cells with the MTT reagent, DMSO is added to solubilize the colored crystals and the samples read at a wavelength of 560 nm. The amount of color produced is directly proportional to the number of viable cells. […] L11939) was prepared at 5 mg/ml in PBS. […] Plates were read on the PolarStar plate reader at 560 nm. […] IC50 values were calculated in GraphPad Prism using non-linear regression curve fitting. All statistical analyses was done either in GraphPad Prism or Microsoft Excel. […] Briefly, compounds are added to cells plated in 96-well plates. The cells are allowed to grow for 72 hours before MTT treatment. The effect of the compounds on cell proliferation is analyzed using GraphPad Prism. A549 cells are a non-small cell lung cancer cell line that have wild type EGFR and p53 but have point mutations in KRAS gene which transform it into an oncogene. […] SH30071.03, lot no. ATB31500), 1% Pen Strep (Gibco, cat no. […] On day 2, working solutions of compounds at 200× were prepared. […] Plates were incubated for 72 hours before analyzing them with MTT (as described above).

H1975 cells = experiment: H1975 Cell Proliferation Assay (MTT); assay type: cell-based; settings: Homo sapiens, NCI-H1975, 72 h, read-out: IC50 Value (μM) H1975 Cells
Procedure: (§2) Cell proliferation is determined using the MTT assay. The MTT cell proliferation assay is a colorimetric assay system which measures the reduction of a tetrazolium component (MTT) into an insoluble formazan product by the mitochondria of viable cells. After incubation of the cells with the MTT reagent, DMSO is added to solubilize the colored crystals and the samples read at a wavelength of 560 nm. The amount of color produced is directly proportional to the number of viable cells.
(§3) 3-(4,5-Dimethylthiazol-2-yl)-2,5-diphenyltetrazolium Bromide (MTT) dye (Aesar, cat no. L11939) was prepared at 5 mg/ml in PBS. To each well, 20 μl of MTT solution was added to existing media and mixed thoroughly with 5 mins of gentle shaking at room temperature. Plates were incubated at 37° C., 5% CO2 for approximately 2 hrs. After 2-3 hrs incubation, media was aspirated out and plates were patted dry. […] Plates were incubated at 37° C., 5% CO2 for 10 min and mix thoroughly with 5 mins of gentle shaking at room temperature. Plates were read on the PolarStar plate reader at 560 nm. Percent (%) inhibition was calculated as 100%−(OD560 nm experimental-blank)×100%/OD560 nm control-blank. Blank=wells+serum free media+0.5% DMSO. Experimental=wells+cells+treatment+0.5% DMSO. Control=wells+cells+0.5% DMSO. IC50 values were calculated in GraphPad Prism using non-linear regression curve fitting. All statistical analyses was done either in GraphPad Prism or Microsoft Excel.
Briefly, compounds are added to cells plated in 96-well plates. The cells are allowed to grow for 72 hours before MTT treatment. The effect of the compounds on cell proliferation is analyzed using GraphPad Prism.

[4] = tested on: caspase 3,7 activity in A431 cells; experiment: cells; settings: for Emax at 8 µM / Emax at 16 µM: Homo sapiens, A-431, read-out: Total Apoptosis (increase in caspase 3,7 activity as percentage of the maximal response); for Ability to Synergize with Tarceva: caspase 3,7 activity, A431 cells
Excerpt: As described below, the capsase 3,7 assay uses the Promega Caspase-Glo 3/7 assay kit (cat no. G8092).
The Caspase-Glo® 3/7 Assay is a luminescent assay that measures caspase-3 and −7 activities in purified enzyme preparations or cultures of adherent or suspension cells. The assay provides a proluminescent caspase-3/7 substrate, which contains the tetrapeptide sequence, DEVD. This substrate is cleaved to release aminoluciferin, a substrate of luciferase used in the production of light. The Caspase-Glo® 3/7 Reagent has been optimized for caspase activity, luciferase activity and cell lysis. The addition of the single Caspase-Glo® 3/7 Reagent in an “add-mix-measure” format results in cell lysis, followed by caspase cleavage of the substrate and generation of a “glow-type” luminescent signal. The Caspase-Glo® 3/7 Assay is designed for use with multiwell plate formats, making it ideal for automated high-throughput screening of caspase activity or apoptosis.
Staurosporine was used as a positive control.
For the capsase 3,7 assay, cells were incubated for 5.5 hrs at 37° C., 5% CO2. The plate was removed from the incubator and equilibrated to room temperature. After 30 min, 25 μl Caspase 3/7 detection reagent (Promega Caspase-Glo 3/7 assay kit, cat no. G8092) was added to each well. The plate was covered with tin foil and shaken on a plate shaker at speed 4 for 3 min. The plate was then incubated for an additional 60 min at room temperature. Luminescence was detected using the PolarStar plate reader.
All statistical analyses were done using GraphPad Prism.
The assay was stopped after 6 hrs and the presence of caspase was measured using the Promega Caspase-Glo® 3/7 Assay.

HT-29 cells = experiment: HT-29 Cell Proliferation Assay (MTT); assay type: cell-based; settings: for IC50: Homo sapiens
Procedure: as §2, §3
Briefly, compounds are added to cells plated in 96-well plates. […] The effect of the compounds on cell proliferation is analyzed using GraphPad Prism.
HT-29 cells are a colon cancer cell line that is utilized to assess the ability of compounds to inhibit the proliferation of cells in tumors of the colon.
For the HT-29 cell proliferation assay, on day 1, HT-29 cells are seeded at 3,000 cells/well in 100 μl media containing 10% FBS, 1× Pen-Strep, and 1× L-Glutamine in 96 well, tissue culture-treated plates. […] Working solutions of compounds were prepared (at […] in 100% DMSO). To 200 μl media, 20 μl of a 5× compound (diluted in plain media) was added for a final DMSO concentration of 0.5%. […] On day 5, plates were analyzed for cell growth using the MTT assay.

[5] = tested on: DNA fragmentation in A549 cells; experiment: DNA Fragmentation Assay (Cell Death Detection ELISA); assay type: cell-based; settings: for activation at 1 µM / activation at 10 µM / Emax at 1 µM / Emax at 10 µM: Homo sapiens; for activation at 1 µM / activation at 10 µM: A549, 24 h, read-out: % Increase over Background; for Emax at 1 µM / Emax at 10 µM: A549, read-out: % Increase Relative to Staurosporin; for induction of apoptosis in A549 cells (DNA fragmentation assay): 10 μM, FIG. 15
[6] = Combination Index with Iressa at 90% inhibition
[7] = Combination Index with Tykerb at 90% inhibition
[8] = A549, 72 h, read-out: IC50 Value (μM) A549 Cells
[9] = HT-29, 72 h, read-out: IC50 Value (μM) HT-29 Cells

- MLM % Remaining@ 30 Min [1]: 3%
- HLM % Remaining@ 30 Min [2]: 45%
Compound: Cc1cccc(NC(c2ccc(C(F)(F)F)cc2)c2ccc3cccnc3c2O)n1 (centres unmarked) [AD4-10628]
- CI @ ED90 [3, 6]: 0.91
- CI @ ED90 [3, 7]: 0.55
- synergy with Tykerb ([3]; based on CI value): significant synergy
- IC50 ([3]; read-out: IC50 Iressa + Compound (nM)): 93 nM

- MLM % Remaining@ 30 Min [1]: 6%
- HLM % Remaining@ 30 Min [2]: 6%
Compound: Cc1ccc2c(C)nc(Nc3nc(-c4ccccc4C)cc(=O)[nH]3)nc2c1 [AD4-11511]
- CI @ ED90 [3, 6]: 0.93
- CI @ ED90 [3, 7]: 0.87
- shift in Tykerb's dose-response curve ([3]; in combination with Tykerb): leftward shift (i.e., greater potency)
- IC50 ([3]; read-out: IC50 Iressa + Compound, Iressa combined with the compound at a fixed constant ratio, MTT assay): 245 nM
- IC50 ([3]; read-out: IC50 Tykerb + Compound, Tykerb combined with the compound at a fixed constant ratio, MTT assay): 118 nM

Compound: Cc1ccnc(NC(c2cc(Cl)cc(Cl)c2Cl)c2ccc3cccnc3c2O)c1 (centres unmarked) [AD4-13072]
- IC50 (A549 cells; [8]): 0.15 µM
- IC50 (H1975 cells): 0.29 µM
- Emax at 8 µM [4]: 38%
- Emax at 16 µM [4]: 49%
- Ability to Synergize with Tarceva [4]: +++ (0.3-0.7 Synergism)

Compound: Cc1cc(Cl)cnc1NC(c1cc(Cl)ccc1Cl)c1ccc2cccnc2c1O (centres unmarked) [AD4-13137]
- IC50 (A549 cells; [8]): 0.16 µM
- IC50 (H1975 cells): 0.12 µM
- IC50 (HT-29 cells; [9]): 0.78 µM
- activation at 1 µM [5]: 182%
- activation at 10 µM [5]: 628%
- Emax at 1 µM [5]: 18%
- Emax at 10 µM [5]: 55%

Compound: Oc1c(C(Nc2ccc(C(F)(F)F)cn2)c2cccc(C(F)(F)F)c2)ccc2cccnc12 (centres unmarked) [AD4-13164]
- activation at 1 µM [5]: 525%
- activation at 10 µM [5]: 788%
- Emax at 1 µM [5]: 39%
- Emax at 10 µM [5]: 58%

Compound: Oc1c(C(Nc2ncc(C(F)(F)F)cc2F)c2ccc(Cl)cc2Cl)ccc2cccnc12 (centres unmarked) [AD4-13165]
- IC50 (A549 cells; [8]): 0.16 µM
- IC50 (H1975 cells): 0.14 µM
- IC50 (HT-29 cells; [9]): 5 µM
- induction of apoptosis in A549 cells (DNA fragmentation assay) [5]: induce apoptosis
- stability toward liver microsome incubation ([1]; mouse and human liver microsomes (MLM, HLM)): increased stability; also recorded: good stability
- MLM % Remaining@ 30 Min [1]: 100%
- HLM % Remaining@ 30 Min [2]: 100%

Compound: Oc1c(C(Nc2ncc(F)cc2F)c2cc(Cl)cc(Cl)c2)ccc2cccnc12 (centres unmarked) [AD4-13176]
- induction of apoptosis in A549 cells (DNA fragmentation assay) [5]: induce apoptosis

Compound: Oc1c(C(Nc2cc(Cl)c(Cl)cn2)c2ccc(Cl)cc2Cl)ccc2cccnc12 (centres unmarked) [AD4-13178]
- IC50 (A549 cells; [8]): 0.084 µM
- IC50 (A549 cells; A549, read-out: IC50, cell proliferation in A549 or H1975 cells): ≤ 0.1 µM
- IC50 (H1975 cells): 0.19 µM
- IC50 (HT-29 cells; [9]): 0.79 µM
- apoptotic activity ([5]; Caspase, DNA Fragmentation, Annexin-V): increased apoptotic activity
- MLM % Remaining@ 30 Min [1]: 83%
- HLM % Remaining@ 30 Min [2]: 100%

Compound: Oc1c(C(Nc2cc(Cl)c(Cl)cn2)c2cc(Cl)ccc2Cl)ccc2cccnc12 (centres unmarked) [AD4-13179]
- IC50 (A549 cells; [8]): 0.14 µM
- IC50 (H1975 cells): 0.14 µM
- IC50 (HT-29 cells; [9]): 4.1 µM
- induction of apoptosis in A549 cells (DNA fragmentation assay) [5]: induce apoptosis

Compound: Oc1c(C(Nc2ncc(F)cc2F)c2cc(Cl)cc(Cl)c2Cl)ccc2cccnc12 (centres unmarked) [AD4-13181]
- IC50 (A549 cells; [8]): 0.12 µM
- IC50 (H1975 cells): 0.58 µM
- Emax at 8 µM [4]: 43%
- Emax at 16 µM [4]: 47%
- Ability to Synergize with Tarceva [4]: ++ (0.7-0.85 Moderate synergism)

Compound: Cc1c(Cl)cnc(NC(c2ccc(Cl)cc2Cl)c2ccc3cccnc3c2O)c1F (centres unmarked) [AD4-13199]
- IC50 (A549 cells; [8]): 0.12 µM
- IC50 (H1975 cells): 0.16 µM
- IC50 (HT-29 cells; [9]): 0.75 µM
- activation at 1 µM [5]: 130%
- activation at 10 µM [5]: 492%
- Emax at 1 µM [5]: 15%
- Emax at 10 µM [5]: 55%
- MLM % Remaining@ 30 Min [1]: 63%
- HLM % Remaining@ 30 Min [2]: 100%

Compound: CCc1cc(Cl)cnc1NC(c1cccc(Cl)c1Cl)c1ccc2cccnc2c1O (centres unmarked) [AD4-13215]
- IC50 (A549 cells; [8]): 0.16 µM
- IC50 (HT-29 cells; [9]): 0.97 µM
- Emax at 8 µM [4]: 20%
- Emax at 16 µM [4]: 27%
- Ability to Synergize with Tarceva [4]: ++ (0.7-0.85 Moderate synergism)

Compound: Cc1nc(NC(c2cc(Cl)ccc2Cl)c2ccc3cccnc3c2O)c(Cl)cc1Cl (centres unmarked) [AD4-13220]
- IC50 (A549 cells; [8]): 0.12 µM
- IC50 (HT-29 cells; [9]): 3.3 µM
- Emax at 8 µM [4]: 32%
- Emax at 16 µM [4]: 40%
- Ability to Synergize with Tarceva [4]: + (0.85-0.9 Slight synergism)

Compound: CCc1cc(Cl)cnc1NC(c1ccc(Cl)cc1)c1ccc2cccnc2c1O (centres unmarked) [AD4-13225]
- activation at 1 µM [5]: 702%
- activation at 10 µM [5]: 697%
- Emax at 1 µM [5]: 52%
- Emax at 10 µM [5]: 52%

Compound: C#Cc1cccc(Nc2ncnc3cc(OCCOC)c(OCCOC)cc23)c1 [Tarceva, reference compound]
- HT-29 Cell Proliferation Assay Results (IC50) (HT-29 cells): No Effect
- IC50 (HT-29 cells; HT-29, 72 h, read-out: IC50, Comparison of Incubation Times in HT-29 Cell Proliferation Assay): 15 µM
- IC50 (HT-29 cells; HT-29, read-out: IC50 from dose-response curves of FIG. 11, HT-29 cells): 12 µM
- synergy with Tykerb [3]: did not produce synergistic effects
